Assay results as given in publication PMC11672637, “7-O-Carboxylic Acid-Substituted 3-O-Alkyl Difluoroquercetin; An Aztreonam-Potentiating Agent Against Carbapenemase-Producing Pseudomonas aeruginosa Through Simultaneous Inhibition of Metallo-β-Lactamase and Efflux Pump” (Antibiotics, 2024).

Assays:
Test in all cases: Time–kill assay
Format in all cases: cell-based, P. aeruginosa
[1] = tested on: PA-002, blaIMP; conditions: ATM 2 MIC + 5 at 8 mg/L
Description: (§1) Aliquots (50 μL) were taken from the incubation mixture at regular time intervals (t = 0, 3, 6, and 24 h), serially diluted in 0.85% NaCl solution, and plated on BAP. Bacterial colonies were counted, and the data are presented as the means of at least three independent experiments.

[2] = tested on: PA-003, blaVIM; conditions: for Log CFU/mL, ATM + 5: 24 h
Description: as §1

[3] = tested on: PA-014, blaGES; conditions: for Log CFU/mL, ATM + 5: 24 h
Description: as §1

[4] = tested on: PA-017, blaNDM; conditions: for Log CFU/mL, ATM + 5: 24 h
Description: as §1

CC(C)(C)CCOc1c(-c2ccc(F)c(F)c2)oc2cc(OCC(=O)O)cc(O)c2c1=O [Compound 5, 2-((2-(3,4-Difluorophenyl)-3-(3,3-dimethylbutoxy)-5-hydroxy-4-oxo-4H-chromen-7-yl)oxy)acetic Acid]
Diff. (ATM + 5, 24 h vs initial inoculum) [1]: −5.45 Log CFU/mL | Diff. (ATM + 5 vs ATM only) [1]: −5.5 Log CFU/mL | Synergistic activity, interpretation [1]: Synergy (a ≥ 2 log10 decrease in CFU/mL for the combination of ATM and 5 compared to ATM alone after 24 h of incubation) | Log CFU/mL, ATM + 5 ([1]; 24 h): 0.00 Log CFU/mL | Diff. (ATM + 5, 24 h vs initial inoculum) ([2]; ATM 1/2 MIC + 5 at 8 mg/L): 4.11 Log CFU/mL | Diff. (ATM + 5 vs ATM only) ([2]; ATM 1/2 MIC + 5 at 8 mg/L): −0.04 Log CFU/mL | Log CFU/mL, ATM + 5 ([2]; ATM 1/2 MIC + 5 at 8 mg/L): 9.84 Log CFU/mL | Diff. (ATM + 5, 24 h vs initial inoculum) ([2]; ATM 1/4 MIC + 5 at 8 mg/L): 4.35 Log CFU/mL | Diff. (ATM + 5 vs ATM only) ([2]; ATM 1/4 MIC + 5 at 8 mg/L): −0.1 Log CFU/mL | Log CFU/mL, ATM + 5 ([2]; ATM 1/4 MIC + 5 at 8 mg/L): 10.08 Log CFU/mL | Diff. (ATM + 5, 24 h vs initial inoculum) ([2]; ATM 1 MIC + 5 at 8 mg/L): −5.5 Log CFU/mL | Diff. (ATM + 5 vs ATM only) ([2]; ATM 1 MIC + 5 at 8 mg/L): −8.9 Log CFU/mL | Synergistic activity, interpretation ([2]; ATM 1 MIC + 5 at 8 mg/L): Synergy (a ≥ 2 log10 decrease in CFU/mL for the combination of ATM and 5 compared to ATM alone after 24 h of incubation) | Log CFU/mL, ATM + 5 ([2]; ATM 1 MIC + 5 at 8 mg/L): 0.23 Log CFU/mL | Diff. (ATM + 5, 24 h vs initial inoculum) ([2]; ATM 2 MIC + 5 at 8 mg/L): −5.73 Log CFU/mL | Diff. (ATM + 5 vs ATM only) ([2]; ATM 2 MIC + 5 at 8 mg/L): −6.4 Log CFU/mL | Synergistic activity, interpretation ([2]; ATM 2 MIC + 5 at 8 mg/L): Synergy (a ≥ 2 log10 decrease in CFU/mL for the combination of ATM and 5 compared to ATM alone after 24 h of incubation) | Log CFU/mL, ATM + 5 ([2]; ATM 2 MIC + 5 at 8 mg/L): 0.00 Log CFU/mL | Diff. (ATM + 5, 24 h vs initial inoculum) ([3]; ATM 1/2 MIC + 5 at 8 mg/L): 1.65 Log CFU/mL | Diff. (ATM + 5 vs ATM only) ([3]; ATM 1/2 MIC + 5 at 8 mg/L): −2.23 Log CFU/mL | Synergistic activity, interpretation ([3]; ATM 1/2 MIC + 5 at 8 mg/L): Synergy (a ≥ 2 log10 decrease in CFU/mL for the combination of ATM and 5 compared to ATM alone after 24 h of incubation) | Log CFU/mL, ATM + 5 ([3]; ATM 1/2 MIC + 5 at 8 mg/L): 6.60 Log CFU/mL | Diff. (ATM + 5, 24 h vs initial inoculum) ([3]; ATM 1/4 MIC + 5 at 8 mg/L): 3.88 Log CFU/mL | Diff. (ATM + 5 vs ATM only) ([3]; ATM 1/4 MIC + 5 at 8 mg/L): −0.5 Log CFU/mL | Log CFU/mL, ATM + 5 ([3]; ATM 1/4 MIC + 5 at 8 mg/L): 8.83 Log CFU/mL | Diff. (ATM + 5, 24 h vs initial inoculum) ([3]; ATM 1 MIC + 5 at 8 mg/L): −2.32 Log CFU/mL | Diff. (ATM + 5 vs ATM only) ([3]; ATM 1 MIC + 5 at 8 mg/L): −5.05 Log CFU/mL | Synergistic activity, interpretation ([3]; ATM 1 MIC + 5 at 8 mg/L): Synergy (a ≥ 2 log10 decrease in CFU/mL for the combination of ATM and 5 compared to ATM alone after 24 h of incubation) | Log CFU/mL, ATM + 5 ([3]; ATM 1 MIC + 5 at 8 mg/L): 2.63 Log CFU/mL | Diff. (ATM + 5, 24 h vs initial inoculum) ([3]; ATM 2 MIC + 5 at 8 mg/L): −4.8 Log CFU/mL | Diff. (ATM + 5 vs ATM only) ([3]; ATM 2 MIC + 5 at 8 mg/L): −2.3 Log CFU/mL | Synergistic activity, interpretation ([3]; ATM 2 MIC + 5 at 8 mg/L): Synergy (a ≥ 2 log10 decrease in CFU/mL for the combination of ATM and 5 compared to ATM alone after 24 h of incubation) | Log CFU/mL, ATM + 5 ([3]; ATM 2 MIC + 5 at 8 mg/L): 0.15 Log CFU/mL | Diff. (ATM + 5, 24 h vs initial inoculum) ([4]; ATM 1/2 MIC + 5 at 8 mg/L): 1.52 Log CFU/mL | Diff. (ATM + 5 vs ATM only) ([4]; ATM 1/2 MIC + 5 at 8 mg/L): −3.45 Log CFU/mL | Synergistic activity, interpretation ([4]; ATM 1/2 MIC + 5 at 8 mg/L): Synergy (a ≥ 2 log10 decrease in CFU/mL for the combination of ATM and 5 compared to ATM alone after 24 h of incubation) | Log CFU/mL, ATM + 5 ([4]; ATM 1/2 MIC + 5 at 8 mg/L): 6.52 Log CFU/mL | Diff. (ATM + 5, 24 h vs initial inoculum) ([4]; ATM 1/4 MIC + 5 at 8 mg/L): 4.97 Log CFU/mL | Diff. (ATM + 5 vs ATM only) ([4]; ATM 1/4 MIC + 5 at 8 mg/L): −0.77 Log CFU/mL | Log CFU/mL, ATM + 5 ([4]; ATM 1/4 MIC + 5 at 8 mg/L): 9.97 Log CFU/mL | Diff. (ATM + 5, 24 h vs initial inoculum) ([4]; ATM 1 MIC + 5 at 8 mg/L): −4.75 Log CFU/mL | Diff. (ATM + 5 vs ATM only) ([4]; ATM 1 MIC + 5 at 8 mg/L): −6.27 Log CFU/mL | Synergistic activity, interpretation ([4]; ATM 1 MIC + 5 at 8 mg/L): Synergy (a ≥ 2 log10 decrease in CFU/mL for the combination of ATM and 5 compared to ATM alone after 24 h of incubation) | Log CFU/mL, ATM + 5 ([4]; ATM 1 MIC + 5 at 8 mg/L): 0.25 Log CFU/mL | Diff. (ATM + 5, 24 h vs initial inoculum) ([4]; ATM 2 MIC + 5 at 8 mg/L): −5.00 Log CFU/mL | Diff. (ATM + 5 vs ATM only) ([4]; ATM 2 MIC + 5 at 8 mg/L): −0.12 Log CFU/mL | Log CFU/mL, ATM + 5 ([4]; ATM 2 MIC + 5 at 8 mg/L): 0.00 Log CFU/mL
